# Assay: in vitro
# Settings: human, hela cells, % viability
row,SMILES,"viability at 28.5 h, 10 µM [%]"
1,CC(C)[C@H]1CN(Cc2ccccc2F)CCN1C(=O)Cn1ncc2ccccc2c1=O [CBK286172],82.2
2,CC[C@@H](Cn1ncc2ccccc2c1=O)NC(=O)CC1c2ccccc2Oc2ccccc21 [CBK286174],89.5
3,O=c1oc2ccccc2n1C1CCN(Cc2nc3ccccc3n2Cc2ccccc2)CC1 [CBK286176],102
4,Cc1nc2c(c(N3CCN(c4ccc(O)cc4)CC3)n1)CN(Cc1ccccc1)CC2 [CBK286177],90.2
5,O=c1n(Cc2ccccc2F)nc2nnc(-c3ccccc3)c(-c3ccccc3)n12 [CBK286179],80.9
6,COc1ccc(Cn2nc3nnc(-c4ccccc4)c(-c4ccccc4)n3c2=O)cc1 [CBK286180],88.8
7,COc1ccc(Cn2nc3nnc(-c4ccc(F)cc4)c(-c4ccc(F)cc4)n3c2=O)cc1 [CBK286183],107
8,COc1ccccc1Cn1nc2nnc(-c3ccc(F)cc3)c(-c3ccc(F)cc3)n2c1=O [CBK286184],97.7
9,COc1ccccc1Cn1nc2nnc(-c3ccccc3)c(-c3ccccc3)n2c1=O [CBK286185],88.6
10,Cc1nc2cc(-c3nccn3C)nn2c(N2CCN(c3ccc4c(c3)OCCO4)CC2)c1C [CBK286186],90.4
11,COc1ccc(N2CCN(c3cc(C)nc4cc(-c5nccn5C)nn34)CC2)cc1 [CBK286187],87.8
12,Cc1cc(N2CCN(c3ccc(O)cc3)CC2)n2nc(-c3nccn3C)cc2n1 [CBK286188],91.2
13,COc1cc2c(cc1OC)C1c3ccccc3NC(c3ccc(F)cc3)N1CC2 (stereo not shown) [CBK286191],102
14,COc1cc2c(cc1OC)C1c3ccccc3N(Cc3ccccc3)C(=O)N1CC2 (stereo not shown) [CBK286192],86.8
15,COc1cc2c(cc1OC)C1c3ccccc3NC(c3ccc(C)cc3)N1CC2 (stereo not shown) [CBK286195],72.7
16,Fc1ccc(CN(Cc2ccco2)C2CCN(c3ccc4c(c3)OCO4)CC2)cc1 [CBK286197],88.7
17,COCC(=O)N1CCc2sccc2C1c1ccc(NC(=O)c2ccco2)cc1 (stereo not shown) [CBK286200],95.6
18,O=C(CN1C(=O)[C@@H]2CCCN2c2ncccc21)NC(c1ccccc1)c1ccccc1 [CBK286205],121
19,O=C(CN1C(=O)[C@H]2CCCN2c2ncccc21)NCCc1c[nH]c2ccccc12 [CBK286206],107
20,O=C(CCc1ccccc1)N1CCCC1c1cccc(Cc2ccccc2F)n1 (stereo not shown) [CBK286208],118
21,O=S(=O)(c1ccc(F)cc1)N1CCCC1c1cccc(Cc2cccc(F)c2)n1 (stereo not shown) [CBK286209],93.9

row,SMILES,"viability at 28.5 h, 10 µM [%]"
1,O=C(Cc1ccc(F)cc1)N1CCCC(c2nccnc2-c2cccc(C(F)(F)F)c2)C1 (stereo not shown) [CBK286210],99.8
2,O=C(COc1ccc(F)cc1)N1CCCC1c1cccc(Cc2ccccc2)n1 (stereo not shown) [CBK286214],105
3,O=C(C1CCCC1)N1CCCC(c2nccnc2-c2cccc(C(F)(F)F)c2)C1 (stereo not shown) [CBK286221],110
4,O=C(c1cccnc1)N1CCC(c2cccc(Cc3ccc(C(F)(F)F)cc3)n2)CC1 [CBK286222],95.4
5,O=C(Cc1ccccn1)N1CCC(c2cccc(Cc3ccc(C(F)(F)F)cc3)n2)CC1 [CBK286224],101
6,COc1ccc(Cc2cccc(C3CCN(C(=O)Cc4ccc(F)cc4)CC3)n2)cc1 [CBK286225],95.6
7,COc1ccccc1Cc1cccc(C2CCN(C(=O)Cc3c[nH]c4ccccc34)CC2)n1 [CBK286226],92.8
8,COc1ccccc1Cc1cccc(C2CCN(CC(=O)Nc3nccs3)CC2)n1 [CBK286227],95.1
9,O=S(=O)(c1ccc(F)cc1)N1CCCC1c1cccc(Cc2ccccc2)n1 (stereo not shown) [CBK286231],97.3
10,COc1ccc(CC(=O)N2CCC(c3cccc(Cc4ccccc4C)n3)CC2)cc1 [CBK286232],93.5
11,COc1ccc(CC(=O)N2CCCC2c2cccc(Cc3ccc(F)cc3)n2)cc1 (stereo not shown) [CBK286233],89.1
12,COc1ccccc1Cc1cccc(C2CCN(C(=O)c3ccc(F)cc3)CC2)n1 [CBK286237],108
13,COc1ccccc1Cc1cccc(C2CCCN2C(=O)CCc2ccc(F)cc2)n1 (stereo not shown) [CBK286238],101
14,COc1ccccc1Cc1cccc(C2CCCN2C(=O)c2ccc(F)cc2)n1 (stereo not shown) [CBK286239],99.1
15,COc1ccccc1Cc1cccc(C2CCN(C(=O)Cc3ccccc3)CC2)n1 [CBK286240],88.1
16,Cc1cccc(-c2nccnc2C2CCCN(C(=O)COc3ccc(F)cc3)C2)c1 (stereo not shown) [CBK286241],88.1
17,Cn1cc(CN2CCCC(c3cccc(Cc4ccc(Cl)cc4)n3)C2)cn1 (stereo not shown) [CBK286242],81.8
18,CCC(=O)N1CCCC1c1nc(C)c2c(n1)N(CCc1ccccc1OC)CCC2 (stereo not shown) [CBK286246],95.4
19,O=C(Cn1cc(C(=O)NC2CCCC2)ccc1=O)NCC1(c2ccccc2)CCCC1 [CBK286248],94.7
20,O=S(=O)(c1ccc(F)cc1)N1CCCC1c1cccc(Cc2ccc(F)cc2)n1 (stereo not shown) [CBK286249],88
21,CCn1cc(CN2CCOC(c3cccc(-c4ccc(OC)cc4)n3)C2)c(C)n1 (stereo not shown) [CBK286250],84.4

row,SMILES,"viability at 28.5 h, 10 µM [%]"
1,COc1cccc(-c2cnc(N(C)C)nc2C2CCCN2Cc2ccc3ncccc3c2)c1 (stereo not shown) [CBK286251],85.5
2,Cc1cc(C)nc(N2CCC(CC(=O)N3CCCCC3CN3CCCC3)CC2)n1 (stereo not shown) [CBK286254],95.6
3,CCC(c1cccc(OC)c1)N(C)C(=O)CC1CCN(c2nc(C)cc(C)n2)CC1 (stereo not shown) [CBK286255],99.7
4,Cc1nc(C2(O)CCCN(C3CCCC3)CC2)sc1COc1ccc(F)c(F)c1 (stereo not shown) [CBK286259],89.7
5,O=C(c1sc2ccccc2c1C1CCN(Cc2ccccc2F)C1)N1CCOCC1 (stereo not shown) [CBK286260],103
6,CC(CN(C)C(=O)CC1CCN(C(=O)CC2CCCCC2)CC1)c1ccccc1 (stereo not shown) [CBK286268],97.9
7,NC(=O)C1(Cc2cccc(-c3cccs3)c2)CCN(C(=O)Cc2ccccc2)CC1 [CBK286272],84.8
8,CNC(=O)C1(Cc2ccccc2-c2ccccc2)CCN(C(=O)Cc2ccc(C)cc2)CC1 [CBK286274],88.4
9,COCc1ccc(C(=O)N2CCC(Cc3ccccc3-c3cccs3)(C(N)=O)CC2)cc1 [CBK286276],102
10,COc1ccc(CN2CCC(Cc3ccccc3-c3cccc(F)c3)(C(N)=O)CC2)cc1 [CBK286277],99.8
11,COc1cccc(C(NC(=O)c2cc(CN3CCOCC3)c(C)o2)c2ccccc2)c1 (stereo not shown) [CBK286279],93.4
12,O=C1CCCC[C@@H]2[C@@H](N1)[C@H](c1ccccc1)CN2Cc1ccc2ccccc2n1 [CBK286281],93.1
13,O=C(Cc1cccs1)N1CCC(c2nnc(-c3ccccc3)c(-c3ccccc3)n2)CC1 [CBK286283],98.8
14,COc1ccc(OC)c(C(O)CN2CCCC(C(=O)N3CCCCCC3)C2)c1 (stereo not shown) [CBK286286],87.5
15,O=C(c1ccccc1)N1C[C@H](c2ccc(F)cc2)[C@H]2CN(Cc3ccccc3F)CC[C@H]21 [CBK286289],90.1
16,COc1ccc(CN2CC[C@@H]3[C@H](C2)[C@@H](c2ccc(F)cc2)CN3C(=O)c2ccccc2)cc1 [CBK286290],92.3
17,O=C(NCc1nnc(-c2cccs2)o1)c1ccccc1-c1ccccc1 [CBK286293],112
18,O=C(NCc1nnc(-c2cccs2)o1)C(c1ccccc1)c1ccccc1 [CBK286294],92.6
19,O=C(NCc1nnc(-c2cccs2)o1)c1cccc(-c2ccc(F)cc2)c1 [CBK286296],86.9
20,OC1CCN(Cc2c([C@H]3CCCO3)[nH]c3ncccc23)CC1 [CBK286301],110
21,Cc1[nH]c(=O)[nH]c(=O)c1CC(=O)N1CCc2ncc(Cl)cc2C1 [CBK286302],101

row,SMILES,"viability at 28.5 h, 10 µM [%]"
1,CC(C)C(=O)Nc1ccc2nc(-c3ccoc3)c(-c3ccoc3)nc2c1 [CBK286304],96.9
2,CC(C)N1CC(C(=O)N(C)C)C2(CCc3ccccc3C2O)C1 (stereo not shown) [CBK286305],89.1
3,O=C1NC2(CCN(C(=O)Cc3ccc(-c4ccccc4)cc3)CC2)Nc2ccccc21 [CBK286309],101
4,O=C(NCc1cccs1)C1(Cc2ccccc2-c2coc3ccccc23)CCOCC1 [CBK286310],108
5,O=C1NC2(CCN(C(=O)CCc3ccc(-c4ccccc4)o3)CC2)Nc2ccccc21 [CBK286316],106
6,Cc1sc2nc(Cc3ccccc3)n(C3CCN(C(=O)c4ccco4)CC3)c(=O)c2c1C [CBK286317],97.3
7,CC1CCCCN1C(=O)CN1C(=O)[C@H]2CCCN2C(=O)c2ccccc21 (stereo partly shown) [CBK286320],99.4
8,COc1ccc(CNC(=O)CN2C(=O)[C@@H]3CCCN3C(=O)c3ccccc32)cc1 [CBK286322],89.7
9,OC(CN1CCC(O)(c2ccc(C(F)(F)F)cc2)CC1)c1ccccc1 (stereo not shown) [CBK286323],102
10,OC(CN1CCC(O)(c2cccc(C(F)(F)F)c2)CC1)c1ccccc1 (stereo not shown) [CBK286324],109
11,Cc1cccc(C2(O)CCN(CC(O)c3ccccc3)CC2)c1 (stereo not shown) [CBK286325],106
12,OC(CN1CCC(O)(c2ccc(F)cc2)CC1)c1ccc(-c2ccccc2)cc1 (stereo not shown) [CBK286328],90
13,OC(CN1CCC2(CC1)CC(O)c1cc(F)ccc1O2)c1ccc(-c2ccccc2)cc1 (stereo not shown) [CBK286331],102
14,Cc1ccccc1C1(O)CCN(CC(O)c2ccc3c(c2)OCCCO3)CC1 (stereo not shown) [CBK286332],103
15,COc1ccccc1C1(O)CCN(CC(O)c2ccc(C(C)(C)C)cc2)CC1 (stereo not shown) [CBK286335],96.2
16,CC(C)(C)c1ccc(C(O)CN2CCC(O)(c3ccc4c(c3)OCO4)CC2)cc1 (stereo not shown) [CBK286336],89.3
17,CCC(NC(=O)C(c1cccs1)c1cccs1)c1ccc(F)cc1 (stereo not shown) [CBK286339],93.4
18,O=C(NCc1nc(-c2ccccc2)no1)C(c1cccs1)c1cccs1 [CBK286340],109
19,Cc1[nH]c(=O)[nH]c(=O)c1CC(=O)N1Cc2cc(Cl)ccc2OC2(CCOCC2)C1 [CBK286341],93
